#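 96-well plates; 48 h exposure; 5 concentrations. Endpoints by linear interpolation between flanking doses. Not reached: highest tested concentration assigned. GI50: concentration for 50% inhibition of growth. TGI marks complete inhibition of growth.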
# Legend:
# Assay in all cases: NCI-60 cell line screen, 48 h
# [1] = test system: RPMI-8226 leukemia
# [2] = test system: 786-0 renal
# [3] = test system: SK-MEL-5 melanoma
# [4] = test system: A549 NSCLC
# [5] = test system: NCI-H226 lung
# [6] = test system: ACHN renal
# [7] = test system: SN12C renal
# [8] = test system: SNB-75 CNS
# [9] = test system: EKVX NSCLC
# [10] = test system: OVCAR-5 ovarian
smiles,measurement,setting,value
O=C1C2C3CC4C5C3C1C5C1(SCCS1)C42 (configuration not stated),TGI,[1],> 100 µM
same,TGI,[2],> 100 µM
same,TGI,[3],> 100 µM
same,TGI,[4],> 100 µM
same,TGI,[5],> 100 µM
same,TGI,[6],> 100 µM
same,TGI,[7],> 100 µM
same,TGI,[8],> 100 µM
C=C(CO)C(=O)OC1CC(=C)C2CC(O)C(C)C2C2OC(=O)C(=C)C12 (configuration not stated),TGI,[1],58.1 µM
same,TGI,[2],> 100 µM
same,TGI,[3],50.9 µM
same,TGI,[4],> 100 µM
same,TGI,[6],34 µM
same,TGI,[7],32.7 µM
same,TGI,[9],> 100 µM
same,TGI,[8],45.6 µM
same,TGI,[10],> 100 µM
Cc1ccc(S(=O)c2ccccc2[N+](=O)[O-])cc1 (configuration not stated),TGI,[1],> 100 µM
same,TGI,[2],> 100 µM
same,TGI,[3],> 100 µM
same,TGI,[4],> 100 µM
same,TGI,[5],85.9 µM
same,TGI,[6],> 100 µM
same,TGI,[7],> 100 µM
same,TGI,[10],> 100 µM
O=C(O)c1ccc(N(/C=C/C(=O)C(F)(F)F)Cc2ccc(Cl)cc2)cc1,GI50,[1],29.8 µM
same,TGI,[1],> 100 µM
same,GI50,[2],31.4 µM
same,TGI,[2],> 100 µM
same,GI50,[3],25 µM
same,TGI,[3],81.1 µM
same,GI50,[4],34.9 µM
same,TGI,[4],> 100 µM
same,GI50,[6],24.4 µM
same,TGI,[6],66 µM
same,GI50,[7],32.3 µM
same,TGI,[7],> 100 µM
same,GI50,[9],19.6 µM
same,TGI,[9],47.9 µM
same,GI50,[10],44.6 µM
same,TGI,[10],> 100 µM
C=CCc1cccc(C=O)c1O,GI50,[1],7.72 µM
same,TGI,[1],> 100 µM
same,GI50,[2],> 100 µM
same,TGI,[2],> 100 µM
same,GI50,[3],38.5 µM
same,TGI,[3],> 100 µM
same,GI50,[4],> 100 µM
same,TGI,[4],> 100 µM
same,GI50,[5],> 100 µM
same,TGI,[5],> 100 µM
same,GI50,[6],> 100 µM
same,TGI,[6],> 100 µM
same,GI50,[7],20.8 µM
same,TGI,[7],> 100 µM
same,GI50,[8],10.6 µM
same,TGI,[8],> 100 µM
same,GI50,[10],> 100 µM
same,TGI,[10],> 100 µM
O=C1C=C(Nc2ccccc2)c2ccccc2C1=O,GI50,[1],2.24 µM
same,TGI,[1],7.49 µM
same,GI50,[2],5.17 µM
same,TGI,[2],18.9 µM
same,GI50,[3],1.7 µM
same,TGI,[3],3.12 µM
same,GI50,[4],1.84 µM
same,TGI,[4],4.06 µM
same,GI50,[5],1.93 µM
same,TGI,[5],4.21 µM
same,GI50,[6],2.56 µM
same,TGI,[6],7.88 µM
same,GI50,[7],1.62 µM
same,TGI,[7],3.11 µM
same,GI50,[8],1.32 µM
same,TGI,[8],2.67 µM
same,GI50,[10],1.85 µM
same,TGI,[10],3.33 µM
Cn1cc(C2=C(c3ccsc3)C(=O)NC2=O)c2ccccc21,GI50,[1],> 25 µM
same,TGI,[1],> 25 µM
same,GI50,[2],> 25 µM
same,TGI,[2],> 25 µM
same,GI50,[3],> 25 µM
same,TGI,[3],> 25 µM
same,GI50,[4],> 25 µM
same,TGI,[4],> 25 µM
same,GI50,[5],> 22.6 µM
same,TGI,[5],> 25 µM
same,GI50,[6],> 25 µM
same,TGI,[6],> 25 µM
same,GI50,[7],> 25 µM
same,TGI,[7],> 25 µM
same,GI50,[8],1.07 µM
same,TGI,[8],> 25 µM
same,GI50,[10],> 25 µM
same,TGI,[10],> 25 µM
Nc1c(C(=O)Nc2cccc(Cl)c2)sc2nc3c(cc12)C(=O)CCC3,GI50,[2],0.739 µM
same,TGI,[2],> 100 µM
same,GI50,[3],0.141 µM
same,TGI,[3],> 100 µM
same,GI50,[4],0.42 µM
same,TGI,[4],> 100 µM
same,GI50,[5],11.1 µM
same,TGI,[5],> 100 µM
same,GI50,[6],> 20 µM
same,TGI,[6],> 100 µM
same,GI50,[7],0.836 µM
same,TGI,[7],> 100 µM
same,TGI,[9],> 100 µM
same,GI50,[8],0.227 µM
same,TGI,[8],2.47 µM
same,GI50,[10],2.09 µM
same,TGI,[10],> 100 µM

# From PubChem BioAssay (NCI)
